Consider 17 molecules from patent US10906876B2, “Tetrahydroisoquinolines as selective NADPH oxidase 2 inhibitors” (University of Pittsburgh—Of the Commonwealth System of …, priority 2013, dated 2021).

Where only a bound is given, the exact number is not on record here.

In this assay the target is T1, Nox5 (Homo sapiens, UniProt Q96PH1).
T1 construct: expressed in transfected cells; host or cells: HEK-Nox5 cells (gift of D. Fulton)
T1 sequence (Q96PH1 19-737 isoform Q96PH1-3 limits assumed): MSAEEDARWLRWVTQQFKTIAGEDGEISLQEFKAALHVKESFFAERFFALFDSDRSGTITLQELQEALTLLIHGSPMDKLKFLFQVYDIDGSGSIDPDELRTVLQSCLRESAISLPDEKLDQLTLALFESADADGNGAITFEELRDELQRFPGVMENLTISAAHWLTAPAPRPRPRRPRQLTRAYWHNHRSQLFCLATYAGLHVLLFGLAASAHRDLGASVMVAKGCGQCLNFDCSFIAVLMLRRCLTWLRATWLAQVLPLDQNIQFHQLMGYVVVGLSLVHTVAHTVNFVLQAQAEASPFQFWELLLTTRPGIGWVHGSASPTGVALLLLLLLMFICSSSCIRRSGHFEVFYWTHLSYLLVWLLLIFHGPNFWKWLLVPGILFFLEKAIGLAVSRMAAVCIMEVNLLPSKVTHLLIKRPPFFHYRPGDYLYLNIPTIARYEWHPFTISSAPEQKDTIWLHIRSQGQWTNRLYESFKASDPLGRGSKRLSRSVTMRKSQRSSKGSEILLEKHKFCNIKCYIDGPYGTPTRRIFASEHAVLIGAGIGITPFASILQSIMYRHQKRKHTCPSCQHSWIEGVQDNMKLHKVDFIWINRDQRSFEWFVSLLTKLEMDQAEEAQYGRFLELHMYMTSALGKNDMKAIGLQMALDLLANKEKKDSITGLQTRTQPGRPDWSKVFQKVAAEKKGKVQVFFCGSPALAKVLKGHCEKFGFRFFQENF
Kind of assay: Nox5 activity in HEK-Nox5 cells, L-012 assay. The settings on record: for IC50: HEK-Nox5 cells stimulated with 1 μM PMA and 0.5 ionomycin, L-012, read-out: IC50 of ROS generation, Nox5 (L-012 assay); for Nox5 inhibitory activity: Table 2. Format: cell-based. An excerpt: All cell culture reagents were obtained from Invitrogen, unless indicated. COS-22 (COS-7 cells stably expressing human p22^phox) and COS-Nox2 (a.k.a. COS-phox) cells (COS-7 cells stably expressing human p22^phox, Nox2, p47^phox and p67^phox) were kindly provided by Dr. Mary C. Dinauer (Indiana University, School of Medicine) (Price et al., Blood, 2002, 99:2653-2661). COS-22 cells were maintained in Dulbecco's Modified Eagle Medium (DMEM) with 4.5 g/L glucose, L-glutamine and sodium pyruvate containing 10% heat-inactivated fetal bovine serum (FBS), 100 units/ml penicillin and 100 μg/ml streptomycin (complete media) supplemented with 1.8 mg/ml G418 (Calbiochem/EMB Bioscience, Gibbstown, N.J.). COS-Nox2 cells were maintained in complete media supplemented with 1.8 mg/mL G418, 1 μg/mL puromycin (Sigma, St Louis, Mo.) and 0.2 mg/mL hygromycin B (Invitrogen, Carlsbad, Calif.). HEK-Nox5 cells were kindly provided by Dr. David Fulton (Georgia Health Sciences University) and maintained in complete media.
COS-Nox2, COS-Nox1/NOXO1/NOXA1, HEK-Nox5 and COS-22 cells were re-plated in OPTIMEM into 384-well white micro-plates (Greiner-Bio One GmbH, Germany) at a density of 2.5×10^3 cells/well for COS-Nox2 and 5×10^4 cells/well for all others. The cells were incubated at 37° C. in PBS containing 400 μm L-012 for 10 min. […] Since Nox1 was constitutively active, Nox1-derived O2^•− was assessed by comparison to non-transfected cells (Cos22). Luminescence was quantified over time using a Biotek Synergy 4 Hybrid Multi-Mode Microplate Reader. The specificity of L-012 for O2^•− was confirmed by the addition of SOD (150 U/mL).
All data are expressed as means±SEM. IC50 values were determined using the GraphPad Prism software (GraphPad Software, San Diego, Calif.) for non-linear regression three-parameters, with constrain values of 100 and 0 for top and bottom, respectively, and assumes a Hill slope of 1.

Turning to `C=C(C)CC1NC2CC(C)(C)C1c1c(Br)cccc12` (racemic) [Compound 7, (±)-(1S,4R,9S)-5-Bromo-3,3-dimethyl-9-(2-methylallyl)-1,2,3,4-tetrahydro-1,4-(epimino-methano)-naphthalene], the IC50 was found to be 20 ± 3.1 µM and the “Nox5 inhibitory activity” value is “active”. For `C=C(C)CC1NC2CC(C)(C)C1c1ccccc12` (racemic) [Compound 8, (±)-(1S,4R,9S)-3,3-Dimethyl-9-(2-methylallyl)-1,2,3,4-tetrahydro-1,4-(epiminomethano)-naphthalene] the same measures were over 100 µM and “inactive”. For `C=C(C)CC1C2c3ccccc3C(CC2(C)C)N1Cc1cccc(F)c1` (racemic) [Compound 11a, (±)-(1S,4R,9S)-10-(3-Fluorobenzyl)-3,3-dimethyl-9-(2-methylallyl)-1,2,3,4-tetrahydro-1,4-(epiminomethano)naphthalene] the same measures were 50 ± 9 µM and “inhibited”. On to `C=C(C)CC1C2c3c(Br)cccc3C(CC2(C)C)N1Cc1ccnc2ccccc12` (racemic) [Compound 11b, (±)-(1S,4R,9S)-5-Bromo-3,3-dimethyl-9-(2-methylallyl)-10-(quinolin-4-ylmethyl)-1,2,3,4-tetra-hydro-1,4-(epiminomethano)naphthalene], for which the IC50 is over 100 µM. On the same count and under the same terms, the result for `C=C(C)CC1C2c3c(Br)cccc3C(CC2(C)C)N1Cc1c[nH]c2ccccc12` (racemic) [Compound 11c, (±)-(1S,4R,9S)-10-((1H-Indol-3-yl)methyl)-5-bromo-3,3-dimethyl-9-(2-methylallyl)-1,2,3,4-tetrahydro-1,4-(epiminomethano)naphthalene] reads over 100 µM. The same measure, in the same setting: the result for `C=C(C)CC1C2c3c(Br)cccc3C(CC2(C)C)N1Cc1ccc2c(c1)OCO2` (racemic) [Compound 11d, (±)-(1S,4R,9S)-10-(Benzo[d][1,3]dioxol-5-ylmethyl)-5-bromo-3,3-dimethyl-9-(2-methylallyl)-1,2,3,4-tetrahydro-1,4-(epiminomethano)naphthalene] reads over 100 µM. For `C=C(C)CC1C2c3c(Br)cccc3C(CC2(C)C)N1Cc1cc(C)on1` (racemic) [Compound 11e, (±)-3-(1S,4R,9S)-5-Bromo-3,3-dimethyl-9-(2-methylallyl)-1,2,3,4-tetrahydro-1,4-(epimino-methano) naphthalen-10-yl)methyl)-5-methylisoxazole], the IC50 turned out to be 31 ± 11 µM and the “Nox5 inhibitory activity” value is “inhibited”. As for `C=C(C)CC1C2c3c(Br)cccc3C(CC2(C)C)N1Cc1cccc(F)c1` (racemic) [Compound 11f, (±)-(1S,4R,9S)-5-Bromo-10-(3-fluorobenzyl)-3,3-dimethyl-9-(2-methylallyl)-1,2,3,4-tetrahydro-1,4-(epiminomethano)naphthalene], the IC50 was 79 ± 30 µM and the “Nox5 inhibitory activity” value is listed as “inhibited”.

Regarding `C=C(C)CC1C2c3c(Br)cccc3C(CC2(C)C)N1CCCCC` (racemic) [Compound 11g, (±)-(1S,4R,9S)-5-Bromo-3,3-dimethyl-9-(2-methylallyl-10-pentyl-1,2,3,4-tetrahydro-1,4-(epiminomethano)naphthalene], the IC50 was over 100 µM and the “Nox5 inhibitory activity” value is given as “virtually no effect”.

Regarding `C=C(C)CC1C2c3c(Br)cccc3C(CC2(C)C)N1Cc1cccs1` (racemic) [Compound 11h, (±)-(1S,4R,9S)-5-Bromo-3,3-dimethyl-9-(2-methylallyl)-10-(thiophen-2-ylmethyl)-1,2,3,4-tetrahydro-1,4-(epiminomethano)naphthalene], the IC50 is over 100 µM and the “Nox5 inhibitory activity” value was “virtually no effect”.

As for `C=C(C)CC1NC2CC(C)(C)C1c1c(-c3ccc(Cl)c(Cl)c3)cccc12` (racemic) [Compound 12a, (±)-(1S,4R,9S)-5-(3,4-Dichlorophenyl)-3,3-dimethyl-9-(2-methylallyl)-1,2,3,4-tetrahydro-1,4-(epiminomethano)naphthalene], the IC50 was 14 ± 0.6 µM and the “Nox5 inhibitory activity” value is “comparable”. As for `C=C(C)CC1C2c3c(-c4ccc(Cl)c(Cl)c4)cccc3C(CC2(C)C)N1Cc1ccc2c(c1)OCO2` (racemic) [Compound 12b, (±)-(1S,4R,9S)-10-(Benzo[d][1,3]dioxol-5-ylmethyl)-5-(3,4-dichlorophenyl)-3,3-dimethyl-9-(2-methylallyl)-1,2,3,4-tetrahydro-1,4-(epiminomethano)-naphthalene], the IC50 is over 100 µM. The same measure, in the same setting: the result for `C=C(C)CC1C2c3c(-c4ccc(Cl)c(Cl)c4)cccc3C(CC2(C)C)N1CCCCC` (racemic) [Compound 12c] reads over 100 µM. Regarding `CC(C)CC1NC2CC(C)(C)C1c1c(Br)cccc12` (racemic) [Compound 13], the IC50 came out at 18 ± 1 µM and the “Nox5 inhibitory activity” value is reported as “retained inhibitory activity”. For `C=C(C)CC1C2c3c(Br)cccc3C(CC2(C)C)N1S(C)(=O)=O` (racemic) [Compound 14a, (±)-(1S,4R,9S)-5-Bromo-3,3-dimethyl-9-(2-methylallyl)-10-(methylsulfonyl)-1,2,3,4-tetrahydro-1,4-(epiminomethano)naphthalene], the IC50 was over 100 µM. With `C=C(C)CC1C2c3c(Br)cccc3C(CC2(C)C)N1S(=O)(=O)c1ccc(F)cc1` (racemic) [Compound 14b, (±)-(1S,4R,9S)-5-Bromo-10-((4-fluorophenyl)sulfonyl)-3,3-dimethyl-9-(2-methylallyl)-1,2,3,4-tetrahydro-1,4-(epiminomethano)naphthalene], the IC50 was over 100 µM. On to `C=C(C)C[C@@H]1N[C@H]2CC(C)(C)[C@@H]1c1c(Br)ccc(Br)c12` [Compound 9], for which the IC50 came out at 36 µM and the “Nox5 inhibitory activity” value was “active”.
